This is an account of results in patent publication US10519152B2, “Compounds and their use in treating cancer” (AstraZeneca AB, priority 2017, dated 2019).

For the test, the target named is T1, Estrogen Receptor (ERα) in MCF-7 human ductal carcinoma breast cell line (Homo sapiens, UniProt P03372).
T1 construct: endogenous in cells; host or cells: MCF-7
T1 sequence (P03372 1-595): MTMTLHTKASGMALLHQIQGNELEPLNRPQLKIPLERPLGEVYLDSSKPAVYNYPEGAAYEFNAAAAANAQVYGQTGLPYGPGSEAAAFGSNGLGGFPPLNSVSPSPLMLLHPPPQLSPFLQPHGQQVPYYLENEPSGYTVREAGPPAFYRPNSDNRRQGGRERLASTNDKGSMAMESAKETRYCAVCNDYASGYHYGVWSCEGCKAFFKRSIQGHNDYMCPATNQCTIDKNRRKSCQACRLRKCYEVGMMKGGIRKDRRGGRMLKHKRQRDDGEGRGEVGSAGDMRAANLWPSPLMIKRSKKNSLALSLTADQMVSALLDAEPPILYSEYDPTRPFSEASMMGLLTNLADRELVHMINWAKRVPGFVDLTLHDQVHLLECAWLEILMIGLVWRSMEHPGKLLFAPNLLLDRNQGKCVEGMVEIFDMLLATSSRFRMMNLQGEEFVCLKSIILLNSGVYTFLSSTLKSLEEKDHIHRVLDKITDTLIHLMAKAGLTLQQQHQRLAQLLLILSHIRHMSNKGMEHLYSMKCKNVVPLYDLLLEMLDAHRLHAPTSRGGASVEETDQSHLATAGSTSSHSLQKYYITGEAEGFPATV
Put plainly: MCF-7 ER degradation assay (cell based immuno-fluorescence). Particulars: MCF-7 cells; for ER degradation ≥ 90% at 0.3 μM: ER degradation by fulvestrant at 0.3 μM is defined as 100%; for DC50: 18-22 hours incubation, 50% reduction of ERα expression, single experiment or average of two or more, read-out: MCF-7 ER degradation IC50. In outline: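 MCF-7 human ductal carcinoma breast cells were seeded at 3.75×10^4 cells per mL (40 μL per well) in 384 well plates with phenol red free DMEM containing 2 mM L-Glutamine and 5% (v/v) Charcoal/Dextran treated foetal calf serum. After overnight culture, compounds were acoustically dispensed, incubated 18-22 hours, then cells were formaldehyde-fixed and immunostained for ERα.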

SMILES strings stand for the structures.

As to `Cc1ncsc1-c1ccc(CNC(=O)[C@@H]2C[C@@H](O)CN2C(=O)[C@@H](NC(=O)COc2cccc(COc3cc(F)c([C@@H]4c5[nH]c6ccccc6c5C[C@@H](C)N4CC(C)(C)F)c(F)c3)c2)C(C)(C)C)cc1` [Example 20, (2S,4R)-1-((S)-2-(2-(3-((3,5-difluoro-4-((1R,3R)-2-(2-fluoro-2-methylpropyl)-3-methyl-2,3,4,9-tetrahydro-1H-pyrido[3,4-b]indol-1-yl)phenoxy)methyl)phenoxy)acetamido)-3,3-dimethylbutanoyl)-4-hydroxy-N-(4-(4-methylthiazol-5-yl)benzyl)pyrrolidine-2-carboxamide], the “ER degradation ≥ 90% at 0.3 μM” value is given as “•” and the DC50 is 1.7 nM.
For `Cc1ncsc1-c1ccc(CNC(=O)[C@@H]2C[C@@H](O)CN2C(=O)[C@@H](NC(=O)COCCCCC(=O)NCCOc2cc(F)c([C@@H]3c4[nH]c5ccccc5c4C[C@@H](C)N3CC(C)(C)F)c(F)c2)C(C)(C)C)cc1` [Example 142, (2S,4R)-1-((S)-2-(2-((5-((2-(3,5-Difluoro-4-((1R,3R)-2-(2-fluoro-2-methylpropyl)-3-methyl-2,3,4,9-tetrahydro-1H-pyrido[3,4-b]indol-1-yl)phenoxy)ethyl)amino)-5-oxopentyl)oxy)acetamido)-3,3-dimethylbutanoyl)-4-hydroxy-N-(4-(4-methylthiazol-5-yl)benzyl)pyrrolidine-2-carboxamide], the “ER degradation ≥ 90% at 0.3 μM” value is “••” and the DC50 was 0.2 nM.
For `Cc1ncsc1-c1ccc(CNC(=O)[C@@H]2C[C@@H](O)CN2C(=O)[C@@H](NC(=O)COCCOCCCCCOc2cc(F)c([C@@H]3c4[nH]c5ccccc5c4C[C@@H](C)N3CC(F)F)c(F)c2)C(C)(C)C)cc1` [Example 167, (2S,4R)-1-((S)-2-(2-(2-((5-(4-((1R,3R)-2-(2,2-Difluoroethyl)-3-methyl-2,3,4,9-tetrahydro-1H-pyrido[3,4-b]indol-1-yl)-3,5-difluorophenoxy)pentyl)oxy)ethoxy)acetamido)-3,3-dimethylbutanoyl)-4-hydroxy-N-(4-(4-methylthiazol-5-yl)benzyl)pyrrolidine-2-carboxamide], in that order: “••” and 0.6 nM.
The matching figures for `Cc1ncsc1-c1ccc(CNC(=O)[C@@H]2C[C@@H](O)CN2C(=O)[C@@H](NC(=O)COCCCCCOCCOc2ccc([C@@H]3c4[nH]c5ccccc5c4C[C@@H](C)N3CC(F)F)nc2)C(C)(C)C)cc1` [Example 10, (2S,4R)-1-((S)-2-(2-((5-(2-((6-((1S,3R)-2-(2,2-Difluoroethyl)-3-methyl-2,3,4,9-tetrahydro-1H-pyrido[3,4-b]indol-1-yl)pyridin-3-yl)oxy)ethoxy)pentyl)oxy)acetamido)-3,3-dimethylbutanoyl)-4-hydroxy-N-(4-(4-methylthiazol-5-yl)benzyl)pyrrolidine-2-carboxamide]: “••” and 12 nM.
For `COC(=O)[C@@H](C)CN1[C@H](c2c(F)cc(OCCOCCOCCOCC(=O)N[C@H](C(=O)N3C[C@H](O)C[C@H]3C(=O)NCc3ccc(-c4scnc4C)cc3)C(C)(C)C)cc2F)c2[nH]c3ccccc3c2C[C@H]1C` [Example 29], in that order: “••” and 2.4 nM.
Turning to `Cc1ncsc1-c1ccc(CNC(=O)[C@@H]2C[C@@H](O)CN2C(=O)[C@@H](NC(=O)COCCCCOCCOc2cc(F)c([C@@H]3c4[nH]c5ccccc5c4C[C@@H](C)N3CC(C)(C)F)c(F)c2)C(C)(C)C)cc1` [Example 16, (2S,4R)-1-((S)-2-(2-(4-(2-(3,5-Difluoro-4-((1R,3R)-2-(2-fluoro-2-methylpropyl)-3-methyl-2,3,4,9-tetrahydro-1H-pyrido[3,4-b]indol-1-yl)phenoxy)ethoxy)butoxy)acetamido)-3,3-dimethylbutanoyl)-4-hydroxy-N-(4-(4-methylthiazol-5-yl)benzyl)pyrrolidine-2-carboxamide], the “ER degradation ≥ 90% at 0.3 μM” value is reported as “••” and the DC50 was determined as 0.8 nM.
Regarding `Cc1ncsc1-c1ccc(CNC(=O)[C@@H]2C[C@@H](O)CN2C(=O)[C@@H](NC(=O)COCCCCCNCCOc2cc(F)c([C@@H]3c4[nH]c5ccccc5c4C[C@@H](C)N3CC(C)(C)F)c(F)c2)C(C)(C)C)cc1` [Example 48, (2S,4R)-1-((S)-2-(2-((5-((2-(3,5-difluoro-4-((1R,3R)-2-(2-fluoro-2-methylpropyl)-3-methyl-2,3,4,9-tetrahydro-1H-pyrido[3,4-b]indol-1-yl)phenoxy)ethyl)amino)pentyl)oxy)acetamido)-3,3-dimethylbutanoyl)-4-hydroxy-N-(4-(4-methylthiazol-5-yl)benzyl)pyrrolidine-2-carboxamide], the “ER degradation ≥ 90% at 0.3 μM” value is “•” and the DC50 stood at 1.8 nM.
As for `Cc1ncsc1-c1ccc(CNC(=O)[C@@H]2C[C@@H](O)CN2C(=O)[C@@H](NC(=O)COCCCOCCOc2ccc([C@@H]3c4[nH]c5ccccc5c4C[C@@H](C)N3CC(F)F)nc2)C(C)(C)C)cc1` [Example 26, (2S,4R)-1-((S)-2-(2-(3-(2-((6-((1S,3R)-2-(2,2-Difluoroethyl)-3-methyl-2,3,4,9-tetrahydro-1H-pyrido[3,4-b]indol-1-yl)pyridin-3-yl)oxy)ethoxy)propoxy)acetamido)-3,3-dimethylbutanoyl)-4-hydroxy-N-(4-(4-methylthiazol-5-yl)benzyl)pyrrolidine-2-carboxamide], the “ER degradation ≥ 90% at 0.3 μM” value is given as “•” and the DC50 worked out at 7.5 nM.
For `Cc1ncsc1-c1ccc([C@@H](CN)NC(=O)[C@@H]2C[C@@H](O)CN2C(=O)[C@@H](NC(=O)COCCOCCOCCOc2cc(F)c([C@@H]3c4[nH]c5ccccc5c4C[C@@H](C)N3CC(C)(C)F)c(F)c2)C(C)(C)C)cc1` [Example 106, (2S,4R)—N-[(1S)-2-amino-1-[4-(4-methylthiazol-5-yl)phenyl]ethyl]-1-[(2S)-2-[[2-[2-[2-[2-[3,5-difluoro-4-[(1R,3R)-2-(2-fluoro-2-methyl-propyl)-3-methyl-1,3,4,9-tetrahydropyrido[3,4-b]indol-1-yl]phenoxy]ethoxy]ethoxy]ethoxy]acetyl]amino]-3,3-dimethyl-butanoyl]-4-hydroxy-pyrrolidine-2-carboxamide], in that order: “•” and 0.9 nM.
The matching figures for `Cc1ncsc1-c1ccc(CNC(=O)[C@@H]2C[C@@H](O)CN2C(=O)[C@@H](NC(=O)COCCCCCN(C)CCOc2cc(F)c([C@@H]3c4[nH]c5ccccc5c4C[C@@H](C)N3CC(C)(C)F)c(F)c2)C(C)(C)C)cc1` [Example 49, (2S,4R)-1-((S)-2-(2-((5-((2-(3,5-difluoro-4-((1R,3R)-2-(2-fluoro-2-methylpropyl)-3-methyl-2,3,4,9-tetrahydro-1H-pyrido[3,4-b]indol-1-yl)phenoxy)ethyl)(methyl)amino)pentyl)oxy)acetamido)-3,3-dimethylbutanoyl)-4-hydroxy-N-(4-(4-methylthiazol-5-yl)benzyl)pyrrolidine-2-carboxamide]: “•” and 0.9 nM.
The matching figures for `Cc1ncsc1-c1ccc(CNC(=O)[C@@H]2C[C@@H](O)CN2C(=O)[C@@H](NC(=O)COCCCCCCCCOc2cc(F)c([C@@H]3c4[nH]c5ccccc5c4C[C@@H](C)N3CC(C)(C)F)c(F)c2)C(C)(C)C)cc1` [Example 12, (2S,4R)-1-((S)-2-(2-((8-(3,5-Difluoro-4-((1R,3R)-2-(2-fluoro-2-methylpropyl)-3-methyl-2,3,4,9-tetrahydro-1H-pyrido[3,4-b]indol-1-yl)phenoxy)octyl)oxy)acetamido)-3,3-dimethylbutanoyl)-4-hydroxy-N-(4-(4-methylthiazol-5-yl)benzyl)pyrrolidine-2-carboxamide]: “••” and 6.6 nM.
In the case of `Cc1ncsc1-c1ccc(CNC(=O)[C@@H]2C[C@@H](O)CN2C(=O)[C@@H](NC(=O)COCCOCCCCOc2cc(F)c([C@@H]3c4[nH]c5ccccc5c4C[C@@H](C)N3CC(C)(C)F)c(F)c2)C(C)(C)C)cc1` [Example 128, (2S,4R)-1-((S)-2-(2-(2-(4-(3,5-Difluoro-4-((1R,3R)-2-(2-fluoro-2-methylpropyl)-3-methyl-2,3,4,9-tetrahydro-1H-pyrido[3,4-b]indol-1-yl)phenoxy)butoxy)ethoxy)acetamido)-3,3-dimethylbutanoyl)-4-hydroxy-N-(4-(4-methylthiazol-5-yl)benzyl)pyrrolidine-2-carboxamide], the “ER degradation ≥ 90% at 0.3 μM” value is on record as “••” and the DC50 worked out at 0.6 nM.
